Where a name gives a salt, the structure may show the parent alone. Read-outs that look alike come from different tables or passages of the source.
Legend:
Format in all cases: cell-based
AtraOR1 [1] = target: T1, AtraOR1 (Amyelois transitella, UniProt J7FXC2); assay: two-electrode voltage clamp in Xenopus oocytes
T1 construct: full ORF (428 residues, JX173648) in pGEMHE, expressed in Xenopus oocytes; with AtraOrco
T1 sequence (J7FXC2 1-427): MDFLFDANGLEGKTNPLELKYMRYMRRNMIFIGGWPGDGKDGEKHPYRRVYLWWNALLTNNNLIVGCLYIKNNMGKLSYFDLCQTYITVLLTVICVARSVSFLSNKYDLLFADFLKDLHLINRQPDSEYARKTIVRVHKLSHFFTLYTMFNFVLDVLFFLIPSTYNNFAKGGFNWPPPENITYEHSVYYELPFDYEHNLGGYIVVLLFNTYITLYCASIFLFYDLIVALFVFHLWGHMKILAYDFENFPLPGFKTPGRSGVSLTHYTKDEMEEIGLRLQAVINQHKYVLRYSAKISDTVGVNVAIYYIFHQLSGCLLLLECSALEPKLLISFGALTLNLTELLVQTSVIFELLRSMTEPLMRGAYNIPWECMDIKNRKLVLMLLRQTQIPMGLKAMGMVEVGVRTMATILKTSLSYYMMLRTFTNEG
T1 sequence (J7G1V0 1-474 partner): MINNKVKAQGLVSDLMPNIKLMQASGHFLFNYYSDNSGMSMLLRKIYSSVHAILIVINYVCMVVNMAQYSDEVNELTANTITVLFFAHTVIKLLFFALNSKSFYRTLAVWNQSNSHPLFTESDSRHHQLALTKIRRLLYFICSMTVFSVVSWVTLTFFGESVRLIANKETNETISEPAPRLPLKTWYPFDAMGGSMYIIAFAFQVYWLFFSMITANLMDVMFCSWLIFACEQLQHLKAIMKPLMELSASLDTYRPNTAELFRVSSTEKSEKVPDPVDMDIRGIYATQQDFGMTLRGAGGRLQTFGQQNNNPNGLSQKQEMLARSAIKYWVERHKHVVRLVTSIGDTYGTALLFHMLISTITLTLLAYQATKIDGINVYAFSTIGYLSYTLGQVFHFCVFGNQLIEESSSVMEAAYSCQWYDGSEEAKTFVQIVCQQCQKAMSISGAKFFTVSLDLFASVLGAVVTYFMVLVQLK

HvirOR13 (HR13) = target: T2, HvirOR13 (HR13) (Heliothis virescens, UniProt Q6A1K1); assay: two-electrode voltage clamp in Xenopus oocytes
T2 construct: full ORF (AJ748328) in pGEMHE, expressed in Xenopus oocytes; with HvirOrco (HR2)
T2 sequence (Q6A1K1 1-425): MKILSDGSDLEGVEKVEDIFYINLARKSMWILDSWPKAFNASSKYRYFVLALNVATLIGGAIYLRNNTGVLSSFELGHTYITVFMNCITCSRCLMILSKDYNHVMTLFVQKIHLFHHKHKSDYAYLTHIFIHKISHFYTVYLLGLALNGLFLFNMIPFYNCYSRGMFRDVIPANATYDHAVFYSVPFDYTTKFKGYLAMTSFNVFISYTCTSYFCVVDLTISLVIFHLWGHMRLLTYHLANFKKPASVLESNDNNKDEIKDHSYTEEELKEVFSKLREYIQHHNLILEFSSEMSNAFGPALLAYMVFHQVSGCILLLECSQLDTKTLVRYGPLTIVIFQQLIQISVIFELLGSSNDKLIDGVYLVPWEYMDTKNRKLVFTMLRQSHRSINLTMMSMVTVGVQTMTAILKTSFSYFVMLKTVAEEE
T2 sequence (Q8MMI4 1-472 partner): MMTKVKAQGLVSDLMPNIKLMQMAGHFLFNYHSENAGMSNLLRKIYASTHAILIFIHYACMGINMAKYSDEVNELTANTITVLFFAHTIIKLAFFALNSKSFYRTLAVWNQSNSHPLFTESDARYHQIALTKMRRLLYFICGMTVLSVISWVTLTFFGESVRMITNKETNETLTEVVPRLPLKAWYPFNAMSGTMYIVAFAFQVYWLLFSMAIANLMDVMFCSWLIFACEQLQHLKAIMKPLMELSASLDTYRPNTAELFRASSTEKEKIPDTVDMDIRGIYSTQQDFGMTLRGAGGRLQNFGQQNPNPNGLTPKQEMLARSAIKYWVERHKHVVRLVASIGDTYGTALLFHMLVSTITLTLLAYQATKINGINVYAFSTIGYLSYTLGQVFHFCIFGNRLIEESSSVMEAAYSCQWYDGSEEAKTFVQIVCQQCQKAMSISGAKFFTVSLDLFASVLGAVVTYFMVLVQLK

AtraOR1 [2] = target: T1, AtraOR1; assay: two-electrode voltage clamp in Xenopus oocytes, screened at […]

CC/C=C\C=C/CCCCCCCCOC=O [Z9Z11-14OFor, (9Z,11Z)-tetradecadien-1-yl formate]
EC50 (AtraOR1 [1]): 90 nM

CCCC/C=C\CCCCCCCCOC=O [Z9-14OFor, (9Z)-tetradecen-1-yl formate]
EC50 (HvirOR13 (HR13)): 33 nM

CC/C=C\C=C/CCCCCCCCCC=O [Z11Z13-16Ald, (11Z,13Z)-hexadecadienal]
EC50 (AtraOR1 [1]): 499 nM

CCCC/C=C\CCCCCCCCCC=O [Z11-16Ald, (11Z)-hexadecenal]
EC50 (HvirOR13 (HR13); read-out: EC50): 150 nM

CC/C=C\C=C/CCCCCCCCCCO [Z11Z13-16OH, (11Z,13Z)-hexadecadien-1-ol]
two-electrode voltage clamp in Xenopus oocytes, screened at 100 μM (AtraOR1 [2]): AtraOR1•AtraOrco-expressing oocytes showed moderate response to Z11Z13-16OH
